This passage reports TGI and GI50 results from PubChem BioAssay (NCI).

Among the test systems are HCT-116 colon; UO-31 renal; UACC-62 melanoma; CAKI-1 renal; SK-MEL-2 melanoma; SK-MEL-5 melanoma; MDA-N; SN12C renal; SR leukemia.
Holding throughout (assay): DTP human tumour cell line panel, 48 h

Where “and” joins values, the source holds several entries; their conditions need not be identical. Equal values may be shown once.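 Results reflect a 48-hour exposure of cells in 96-well plates to compound at five concentrations. GI50 is the concentration that inhibits growth by half. TGI denotes the concentration required for complete inhibition of growth.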

For `COC(=O)c1cn(CCCC(=O)O)nn1`, the TGI in the assay on HCT-116 colon, in the assay with UO-31 renal, in the assay on UACC-62 melanoma, in the assay on CAKI-1 renal, in the assay with SK-MEL-2 melanoma and in the assay with SK-MEL-5 melanoma was > 100 µM throughout. The TGI in the assay on MDA-N and with SN12C renal was > 100 µM throughout.

For the compound `COc1cc(/C=C/C(=O)OCC23CC[C@@]4(C(=O)O)CCC(C)[C@H](C)C4C2=CCC2[C@@]4(C)CC[C@H](O)C(C)(C)C4CC[C@]23C)ccc1O` (stereo partly drawn), the TGI with HCT-116 colon was 46.4 µM; in the assay with UACC-62 melanoma it was 41.9 µM; in the assay on CAKI-1 renal, > 100 µM; in the assay on SR leukemia, 61.3 µM; with SK-MEL-2 melanoma, 47.5 µM; in the assay on SK-MEL-5 melanoma, 32.9 µM. Moreover, the results for the total growth inhibition concentration (TGI) in the assay on MDA-N and with SN12C renal were 60.7 µM and 67.8 µM, respectively.

For the compound `CC(=O)NC1C(OCc2ccccc2)OC(CO)C(O)C1OCC(=O)NC(C)C(=O)NC(CCC(=O)NCCCCNc1ccc([N+](=O)[O-])c2[nH]c3ccccc3c(=O)c12)C(N)=O` (stereo not drawn), the TGI in the assay with HCT-116 colon, in the assay with UO-31 renal, in the assay with CAKI-1 renal, in the assay with SR leukemia, in the assay with SK-MEL-2 melanoma and in the assay on MDA-N was > 100 µM each time. Also, the concentration for total growth inhibition (TGI) in the assay on SN12C renal was > 100 µM.

Take `CN(C)CCNc1ccc(C(=O)NCCCN(C)CCCNC(=O)c2ccc(NCCN(C)C)c3c(=O)c4ccccc4[nH]c23)c2[nH]c3ccccc3c(=O)c12`: the TGI stood at 0.409 µM in the assay on HCT-116 colon; 15.8 µM in the assay on UO-31 renal; 0.776 µM in the assay on UACC-62 melanoma; 31.8 µM in the assay with CAKI-1 renal; 0.414 µM in the assay with SK-MEL-2 melanoma; 1.06 µM with SK-MEL-5 melanoma. Besides, the TGI with MDA-N worked out at 0.583 µM; in the assay on SN12C renal, 1.02 µM.

As to `CO/C(=N\N=C\c1cc(OC)ccc1OC)c1ccncc1`, the TGI with HCT-116 colon, in the assay with UO-31 renal, with SR leukemia, in the assay with SK-MEL-2 melanoma, in the assay on SK-MEL-5 melanoma and in the assay on MDA-N was > 10 µM throughout. For the same compound, the TGI with SN12C renal was > 10 µM.

Take `O=C(O)[C@H]1[C@@H](C2CCCCC2)O[C@@H](C2CCCCC2)O[C@H]1C(F)(F)F`: the TGI in the assay on HCT-116 colon is > 100 µM; with UO-31 renal it was 66.2 µM; in the assay with UACC-62 melanoma it was 41.2 µM; in the assay with CAKI-1 renal, 36.4 µM; in the assay on SR leukemia, 46.9 µM; in the assay with SK-MEL-5 melanoma it was 44.4 µM. Further, the figures for the total growth inhibition concentration (TGI) in the assay on MDA-N and in the assay on SN12C renal were 30.7 µM and 38.5 µM, respectively.

Take `O=C1NC(N/N=C\C(O)C(O)C(O)CO)=N/C1=C/c1ccccc1` (stereo not drawn): the GI50 in the assay with HCT-116 colon was > 100 µM and 37.5 µM; in the assay with SR leukemia it was > 100 µM and 44.1 µM; in the assay with SK-MEL-5 melanoma, > 100 µM and 38.9 µM; in the assay with SN12C renal, > 100 µM and 46.8 µM. The TGI in the assay with HCT-116 colon, in the assay with UO-31 renal, with CAKI-1 renal, with SR leukemia, with SK-MEL-2 melanoma and with SK-MEL-5 melanoma was > 100 µM each time. Further, the TGI in the assay with MDA-N and in the assay on SN12C renal was > 100 µM each time.

Regarding `COc1ccc(-c2nc(N)c(C#N)c3c2CCS(=O)(=O)c2ccc(C)cc2-3)cc1OC`, the TGI is > 100 µM in the assay on HCT-116 colon; > 100 µM with UO-31 renal; 51.7 µM in the assay with UACC-62 melanoma; > 100 µM in the assay on CAKI-1 renal; 85.2 µM with SK-MEL-2 melanoma; > 100 µM with SK-MEL-5 melanoma. Also, the figures for the TGI in the assay with MDA-N and with SN12C renal were 51 µM and > 100 µM, respectively.

Regarding `COC(=O)[C@H](Cc1ccccc1)NC(=O)c1ccc(CNC(=O)/C=C/c2ccc(-c3ccccc3)cc2)cc1`, the TGI with HCT-116 colon, in the assay with UO-31 renal, in the assay with UACC-62 melanoma, in the assay on CAKI-1 renal, in the assay with SK-MEL-2 melanoma and in the assay on SK-MEL-5 melanoma was > 100 µM in each case. Also, the TGI with MDA-N and in the assay with SN12C renal was > 100 µM throughout.

With `CCC(C)[C@H](NC(=O)[C@H](Cc1ccccc1)NC(=O)N(CC)c1ccccc1)C(=O)N[C@@H](CC(C)C)C(=O)OC` (stereo partly drawn), the TGI in the assay on HCT-116 colon is > 100 µM; with UO-31 renal it was 67.2 µM; in the assay on UACC-62 melanoma it was > 100 µM; in the assay with CAKI-1 renal, > 100 µM; in the assay with SK-MEL-2 melanoma it was > 100 µM; with SK-MEL-5 melanoma, 59.8 µM. Also, the TGI in the assay with MDA-N and with SN12C renal was > 100 µM in each case.

Regarding `COc1c2c(c3c(c1C1OC(C)[C@@H](C)O1)CC(C)(C)O3)C(=O)c1ccccc1C2=O` (stereo partly drawn), the TGI with HCT-116 colon was > 100 µM; with UO-31 renal, > 100 µM; in the assay with UACC-62 melanoma, > 100 µM; with CAKI-1 renal, > 100 µM; with SR leukemia it was 68.2 µM; in the assay with SK-MEL-2 melanoma it was > 100 µM. In addition, the TGI in the assay with SK-MEL-5 melanoma and in the assay with SN12C renal was > 100 µM throughout.

`O=S(=O)(Oc1ccc2oc3ccccc3c2c1-c1c(OS(=O)(=O)C(F)(F)F)ccc2oc3ccccc3c12)C(F)(F)F`: the TGI in the assay with HCT-116 colon, in the assay with UO-31 renal, in the assay on UACC-62 melanoma, with CAKI-1 renal, in the assay with SR leukemia and in the assay with SK-MEL-2 melanoma was > 100 µM each time. Besides, in the assay on SK-MEL-5 melanoma, the TGI is > 100 µM.

For the compound `O=S(=O)(c1ccc(Br)cc1)n1c2ccc(Br)cc2c2nc3ccccc3nc21`, the TGI in the assay on HCT-116 colon, in the assay with UO-31 renal, in the assay on UACC-62 melanoma, in the assay with CAKI-1 renal, in the assay with SK-MEL-2 melanoma and in the assay on SK-MEL-5 melanoma was > 100 µM each time. Besides, the TGI with MDA-N and in the assay on SN12C renal was > 100 µM each time.

As for `COc1cc2c(cc1OCCCN1CCN(CCCOc3cc4c(cc3OC)C(=O)N3CCC[C@H]3C=N4)CC1)C=CC(C)(C)O2`, the GI50 in the assay on UO-31 renal is 1.51 µM; in the assay on UACC-62 melanoma, 1.42 µM; with CAKI-1 renal it was 0.827 µM; with SK-MEL-2 melanoma, 1.58 µM; in the assay on SK-MEL-5 melanoma it was 1.27 µM; in the assay with SN12C renal, 0.584 µM. For the same compound, the TGI in the assay on UO-31 renal was 3.49 µM; in the assay on UACC-62 melanoma, 2.73 µM; in the assay with CAKI-1 renal, 2.12 µM; in the assay on SK-MEL-2 melanoma it was 2.97 µM; in the assay on SK-MEL-5 melanoma, 2.53 µM; in the assay on SN12C renal, 1.95 µM.

Consider `CCCCNC1CCC2(SCCS2)c2[nH]c3ccccc3c21` (stereo not drawn), for which the TGI with HCT-116 colon is 50.1 µM; with UO-31 renal, > 89.4 µM; in the assay with UACC-62 melanoma, > 83.8 µM; in the assay on SR leukemia, 39.6 µM; with SK-MEL-5 melanoma it was 18 µM; in the assay with SN12C renal it was > 100 µM.
